Where “and” joins values, the source holds several entries; their conditions need not be identical. Equal entries are not always repeated.
Tests used:
Format in all cases: in vivo
L. infantum [1] = assay: Clinical study in dogs infected with L. infantum: qPCR on spleen aspirates; details: spleen aspirate, Glucantime 100 mg/kg dNMA SC or Fexinidazole 60 mg/kg PO once daily Days 0-27
Method: (§1) In a clinical study, dogs infected with L. infantum were treated with meglumine antimoniate (GLUCANTIME®, Merial) as a positive control, or FEX (Table 5). Eight blocks of two animals were formed based antibody titers and biological scores. Six dogs in each group were naturally infected by housing them in an endemic area for two years and two dogs in each group were artificially infected by intravenous administration of a known quantity of parasites recovered from the spleen of an infected dog.
(§2) The first group (FEX) was compared to the second group, which was treated with 27 mg/kg GLUCANTIME (meglumine antimoniate, or 100 mg/kg of dNMA) “GLU”), over 28 days.
(§3) Variables. The Clinical Score is an additive score of various clinical signs (body condition, lymphadenopathy, splenomegaly, appetite, behavior, mucous membrane color, dermatopathology, ocular signs, digestive signs, arthropathy) evaluated before treatment and on Days 7, 14, 21, 28, 57, 184, 219, 254, 282, 310, 345, 400 and 436. The Overall Biological Score is an additive score based on the severity of changes in hematology/chemistry values (creatinine, urine protein/creatinine, Hct, globulin, ALAT), evaluated pretreatment and on Days 28, 57, and 181. The L. infantum immunofluorescent antibody titers (IFAT) were determined from samples collected before treatment and on Days 28, 57, and 181. Finally, quantitative PCR (qPCR) for L. infantum was conducted on spleen aspirates collected before treatment and on Days 28, 57, 142, 184, and 373.

L. infantum [2] = assay: Clinical study in dogs infected with L. infantum: overall outcome (cure, relapse, removal of animals)
Method: as §1
The first group (FEX) was compared to the second group, which was treated with 27 mg/kg GLUCANTIME (meglumine antimoniate, or 100 mg/kg of dNMA) “GLU”), over 28 days. […]

L. infantum [3] = assay: Clinical study in dogs infected with L. infantum: Overall Biological Score; set-up: key: additive score of severity of hematology/chemistry changes; details: samples collected on D16 (printed in Day 28 column), Group 1 Block 8 dog removed for toxicity; Glucantime 100 mg/kg dNMA SC once daily
L. infantum [4] = assay: as above; set-up: key: additive score of severity of hematology/chemistry changes; details: Glucantime 100 mg/kg dNMA SC or Fexinidazole 60 mg/kg PO once daily Days 0-27
Method: as §1, §2, §3

L. infantum [5] = assay: Clinical study in dogs infected with L. infantum: Clinical Score; set-up: key: additive score of clinical signs (body condition, lymphadenopathy, etc.); details: Glucantime 100 mg/kg dNMA SC or Fexinidazole 60 mg/kg PO once daily Days 0-27
Method: as §1, §2, §3

[6] = Day −7 (before treatment), individual dogs

meglumine antimoniate [Glucantime]
qPCR for L. infantum (L. infantum [1]; Day 28, individual dogs): 4.04 log copies/mL and 3.73 log copies/mL and 5.93 log copies/mL and 5.63^3 log copies/mL and BLOQ^1 (BLOQ = Below Level of Quantification = < log 3.64 copies/mL spleen aspirate) and 5.77 log copies/mL and 6.40^2 log copies/mL and 5.81 log copies/mL
qPCR for L. infantum (L. infantum [1]; Day 57, individual dogs): BLOQ (BLOQ = Below Level of Quantification = < log 3.64 copies/mL spleen aspirate) (3×) and 4.93 log copies/mL and 5.14 log copies/mL and 4.78 log copies/mL
qPCR for L. infantum (L. infantum [1]; Day 142, individual dogs): BLOQ (BLOQ = Below Level of Quantification = < log 3.64 copies/mL spleen aspirate) (3×) and 4.73 log copies/mL and 5.57 log copies/mL and 3.94 log copies/mL
qPCR for L. infantum (L. infantum [1]; Day 184, individual dogs): BLOQ (BLOQ = Below Level of Quantification = < log 3.64 copies/mL spleen aspirate) (2×) and 3.97 log copies/mL and 5.53 log copies/mL and 7.01 log copies/mL and 5.62 log copies/mL
qPCR for L. infantum (L. infantum [1]; Day 373, individual dogs): BLOQ (BLOQ = Below Level of Quantification = < log 3.64 copies/mL spleen aspirate) and 5.23 log copies/mL and 3.83 log copies/mL
qPCR for L. infantum (L. infantum [1]; [6]): 5.81 log copies/mL and 4.38 log copies/mL and 6.40 log copies/mL and 5.10 log copies/mL and 5.12 log copies/mL and 6.87 log copies/mL and 6.17 log copies/mL and 6.70 log copies/mL
removal of animal due to deterioration (L. infantum [2]; Group 1 Block 3 dog, Glucantime 100 mg/kg dNMA SC once daily Days 0-27): ^1Dog Group 1 Block 3 removed on Day 28 due to continued deterioration
removal of animal due to toxicity (L. infantum [2]; Group 1 Block 8 dog, Glucantime 100 mg/kg dNMA SC once daily): ^2Dog Group 1 Block 8 removed on Day 20 due to GLUCANTIME toxicity
removal of animals due to lack of efficacy (L. infantum [2]; Group 1 Blocks 2, 4, 7 dogs, Glucantime 100 mg/kg dNMA SC once daily Days 0-27): ^3Dogs Group 1 Blocks 2, 4, 7 removed after Day 184 due to lack of GLUCANTIME efficacy
Overall Biological Score (L. infantum [3]): 5^2
Overall Biological Score (L. infantum [4]; Day 28, individual dogs): 2 (2×) and 1 and 4 and 3 (2×) and 2^1
Overall Biological Score, group average (L. infantum [4]; Day 28): 2.4
Overall Biological Score (L. infantum [4]; Day 57, individual dogs): 1 (4×) and 4 (2×)
Overall Biological Score, group average (L. infantum [4]; Day 57, Group 1 includes D28 data of Block 3 dog carried forward): 2.0^3
Overall Biological Score (L. infantum [4]; Day 181, individual dogs): 3 (2×) and 2 (2×) and 0 and 6
Overall Biological Score, group average (L. infantum [4]; Day 181, Group 1 includes D28 data of Block 3 dog carried forward): 2.7
Overall Biological Score (L. infantum [4]; Day −14 (pretreatment), individual dogs): 6 and 1 (2×) and 3 (2×) and 7 and 2 (2×)
Overall Biological Score, group average (L. infantum [4]; Day −14 (pretreatment)): 3.1
Clinical Score, group average (L. infantum [5]; Day 7): 1.3
Clinical Score, group average (L. infantum [5]; Day 14): 1.1
Clinical Score, group average (L. infantum [5]; Day 21): 2.1
Clinical Score (L. infantum [5]; Day 28, individual dogs): 0
Clinical Score, group average (L. infantum [5]; Day 28, Group 1 includes D21 data of Block 3 dog carried forward): 1.33
Clinical Score (L. infantum [5]; Day 57, individual dogs): 0
Clinical Score, group average (L. infantum [5]; Day 57, Group 1 includes D21 data of Block 3 dog carried forward): 1.33
Clinical Score (L. infantum [5]; Day 184, individual dogs): 0
Clinical Score, group average (L. infantum [5]; Day 184): 0.0
Clinical Score (L. infantum [5]; Day 219, individual dogs): 0
Clinical Score, group average (L. infantum [5]; Day 219): 0.0
Clinical Score (L. infantum [5]; Day 254, individual dogs): 3 and 0 (2×)
Clinical Score, group average (L. infantum [5]; Day 254): 1.0
Clinical Score (L. infantum [5]; Day 282, individual dogs): 3 and 0 (2×)
Clinical Score, group average (L. infantum [5]; Day 282): 1.0
Clinical Score (L. infantum [5]; Day 310, individual dogs): 2 and 0 (2×)
Clinical Score, group average (L. infantum [5]; Day 310): 0.7
Clinical Score (L. infantum [5]; Day 345, individual dogs): 0
Clinical Score, group average (L. infantum [5]; Day 345): 0.0
Clinical Score (L. infantum [5]; Day 400, individual dogs): 1 and 0 (2×)
Clinical Score, group average (L. infantum [5]; Day 400): 0.3
Clinical Score (L. infantum [5]; Day 436, individual dogs): 4 and 0 (2×)
Clinical Score, group average (L. infantum [5]; Day 436): 1.3
Clinical Score (L. infantum [5]; [6]): 2 (3×) and 0 (4×) and 3
Clinical Score, group average (L. infantum [5]; Day −7 (before treatment)): 1.1
